Literature values, collected in US7632832B2, “CGRP receptor antagonists” (Merck & Co., Inc., priority 2005, dated 2009).

System: CGRP
Conditions: marmoset, electrical stimulation of the trigeminal ganglion (Doods et al. 2000)

With `NCCCC[C@H](NC(=O)[C@@H](Cc1cc(Br)c(O)c(Br)c1)NC(=O)N1CCC(N2Cc3ccccc3NC2=O)CC1)C(=O)N1CCN(c2ccncc2)CC1` [BIBN4096BS] as the compound, how does the “effect on increase in facial blood flow” value read?
Its value is “blocked”.
